Experiments:
Assay type in all cases: in vivo
[1] = tested on: human stomach cancer cell line SNU-16 xenograft; experiment: Antitumor effect in SNU-16 subcutaneous xenograft model in mice; settings: oral, once a day for 11 days, tumor volume last day
Excerpt: Human stomach cancer cell line SNU-16, which had been cultured in an RPMI-1640 medium containing 10% FBS, and penicillin and streptomycin, were adjusted to a concentration of 1×10^8 cells/mL with Hanks' Balanced Salt Solution (GIBCO #24020) to prepare a cell suspension, and the suspension was mixed with […] (BD Biosciences, Cat#354234) in a ratio of 1:1 to prepare a cell suspension in a concentration of 5×10^7 cells/ml. The cell suspension was inoculated in a volume of 100 ut into a subcutaneous part of a right flank of nude mice, 6 to 7 weeks of ages (BALB/cAiel-nu/nu, female, Clea Japan Inc.). Seven days after cell inoculation, the shortest diameter and the longest diameter of a tumor in each mouse were measured by using an electronic digital caliper (Digimatie™ caliper, Mitutoyo Corporation), so as to calculate the volume of the tumor in accordance with the following calculation formula: Tumor volume(mm^3)Longest diameter(mm)×Shortest diameter(mm)×Shortest diameter(mm)/2
(§1) On the basis of the volumes of tumors obtained on the first day of administration, the nude mice were grouped such that averages of the tumor volumes were substantially equal among the groups. Each test substance was dissolved in DMSO, Tween 80 was added thereto to prepare a solution in a 10-fold concentration and the thus prepared solution was stored at the freezer before use. Immediately before the administration, the stock solution was diluted with a 5% glucose solution to obtain a final administration solution (in which a ratio in % among DMSO, Tween 80 and the 5% glucose solution was 3.5:6.5:90). Each evaluation sample was orally administered to test substance administration group at a volume of 0.4 mL per 20 g of body weight once a day continuously for 11 days, and in a control group, an administration solvent was orally administered under the same conditions. Incidentally, the experiment was conducted on groups each consisting of 5 mice.
(§2) With respect to each of the control group and test substance administration group, a ratio of the weight measured on the final day to the weight measured on the first day (relative body weight: RBW) was calculated. If a ratio of the RBW of the test substance administration group/the RBW of the control group is 0.9 or mom, the corresponding test substance administration group was defined as a well-tolerated. In the test substance administration group thus defined as well-tolerated, a ratio of the tumor volume of the test substance-dosing group to the tumor volume of the control group obtained on the last day (TIC) (%) was calculated, and shown in Table 21.

[2] = tested on: human lung cancer cell line NCI-H1581 xenograft; experiment: Antitumor effect in NCI-H1581 subcutaneous xenograft model in mice; settings: oral, once a day for 11 days, tumor volume last day
Method: Human lung cancer cell line NCI-H1581, which had been cultured in RPMI-1640 medium containing 10% FBS, and penicillin and streptomycin, were adjusted to a concentration of 1×10^8 cells/mL with Hanks' Balanced Salt Solution(GIBCO #24020) to prepare a cell suspension, and the suspension was mixed with […] in a ratio of 1:1 to prepare a cell suspension in a concentration of 5×10^7 cells/mL. The cell suspension was inoculated in a volume of 100 μL into a subcutaneous part of a right flank of each of nude mice, 6 to 7 weeks of ages (BALB/cAJcl-nu/nu, female, Clea Japan Inc.). Ten to 11 days after the cell inoculation, the shortest diameter and the longest diameter of a tumor in each mouse were measured by using an electronic digital caliper (Digimatic™ caliper, Mitutoyo Corporation), so as to calculate the volume of the tumor in accordance with the following calculation formula: Tumor volume(mm^3)=Longest diameter(mm)×Shortest diameter(mm)×Shortest diameter(mm)/2
as §1
as §2, with “more,” for “mom,”, “22.” for “21.”

[3] = tested on: human endometrial cancer cell line MFE296 xenograft; experiment: Antitumor effect in MFE296 subcutaneous xenograft model in mice; settings: oral, once a day for 14 days, tumor volume last day
Excerpt: Human endometrial cancer cell line MFE296 (DSMZ Number ACC-419), which had been cultured in an RPMI-1640 medium containing 10% FBS, and penicillin and streptomycin, were adjusted to a concentration of 1×10^8 cells/mL with Hanks' Balanced Salt Solution (GIBCO #24020) to prepare a cell suspension, and the suspension was mixed with […] (BD Biosciences, Cat#354234) in a ratio of 1:1 to prepare a cell suspension in a concentration of 5×10^7 cells/ml. The suspension was inoculated in a volume of 100 μL into a subcutaneous part of a right flank of nude mice, 7 weeks of age (BALB/cAJcl-nu/nu, female, Clea Japan Inc.). Twelve days after cell inoculation, the shortest diameter and the longest diameter of a tumor in each mouse were measured by using an electronic digital caliper (Digimatic™ caliper, Mitutoyo Corporation), so as to calculate the volume of the tumor in accordance with the following calculation formula: Tumor volume(mm^3)=Longest diameter(mm)×Shortest diameter(mm)×Shortest diameter(mm)/2
as §1, with “14” for “11”
as §2, with “more,” for “mom,”, “27.” for “21.”

With CNC(=O)n1ccc2cc(Oc3ccnc(NC(=O)c4ccc(C5CCN(CCO)CC5)cc4)c3)c(OCCOC)cc21 [Example 22, 5-((2-(4-(1-(2-Hydroxyethyl)piperidin-4-yl)benzamide)pyridin-4-yl)oxy)-6-(2-methoxyethoxy)-N-methyl-1H-indole-1-carboxamide] the “T/C (%)” value ([1]; 6.25 mg/kg) was 49%, the “T/C (%)” value ([1]; 12.5 mg/kg) was 26% and the “T/C (%)” value ([1]; 25 mg/kg) was 17%. For the same compound, the “T/C (%)” value ([1]; 50 mg/kg) was 18%, the “T/C (%)” value ([2]; 6.25 mg/kg) was 46% and the “T/C (%)” value ([2]; 12.5 mg/kg) was 21%. For the same compound, the “T/C (%)” value ([2]; 25 mg/kg) was 13%, the “T/C (%)” value ([2]; 50 mg/kg) was 8% and the “T/C (%)” value ([3]; 6.25 mg/kg) was 91%. The “T/C (%)” value ([3]; 12.5 mg/kg) was 85%, the “T/C (%)” value ([3]; 25 mg/kg) was 60% and the “T/C (%)” value ([3]; 50 mg/kg) was 54%.
